Measurements published in US20060270677A1, “Method for the treatment of noise phobia in companion animals” (Wyeth, priority 2005, published 2006).

Test: in vivo
Conditions: male, Beagle, dog, po
From the text: In this evaluation 8 male Beagle breed dogs, 6 months to 2 years of age, and at least 10 kg in weight were used. Dogs were housed in individual indoor cages in compliance with standards outlined in the Guide for the Care and Use of Laboratory Animals of the Institute of Laboratory Animal resources, National Research Council. The dogs were fed an appropriate amount of standard commercial dry ration once per day. Fresh tap water in water bowls was provided ad libitum. On the day before the test compounds were administered, food was removed from the dogs by 4:00 pm. Food was withheld until after taking blood samples at the 4 h time point after administration of test materials. Dogs were weighed and ranked by descending weight order and were given physical exams by a veterinarian. The two heaviest dogs were randomly assigned to Group 1 or 2. The second two heaviest dogs were randomly assigned to Group 1 or 2 and so on, until all 8 dogs were placed into either of the two groups. Group 1 with 4 dogs/group, was treated orally with 15 mg/kg of the acetamide test compound and Group 2 was treated orally with 15 mg/kg of the carbonitrile test compound. One week after treatment all dogs were reweighed to ensure correct dosing. Two weeks after treatment, Group 1 was treated orally with 30 mg/kg of the acetamide test compound and Group 2 was treated orally with 30 mg/kg of the carbonitrile test compound. A treatment vial containing an appropriate amount of test compound was provided for each dog. The appropriate amount of vehicle (water containing 0.5% Methocel A4M and 0.01% polysorbate 80) was added to the vial and the contents of the vial were thoroughly mixed. The resultant suspension was withdrawn with an unarmed disposable 12 ml plastic syringe and administered to the dog. Test suspensions were administered to the back of the throat to ensure that they were reliably and completely swallowed by the dog. The vials were rinsed with 0.5 ml vehicle per kg of body weight and the rinsate was administered to the dog. Blood samples were collected at regular time intervals and analyzed for concentration of test compound. The Cmax value (the maximum compound concentration in the plasma) and the Tmax value (the time, after dosing, at which the peak compound concentration was obtained) were determined by observation. For Table I, the term “Acetamide” designates N-methyl-N-[3-(3-methyl-1,2,4-triazolo-[4,3-b]pyridazin-6-yl)phenyl]acetamide; and the term “Carbonitrile” designates 7-(3-pyridyl)pyrazolo[1,5-a]pyrimidine-3-carbonitrile.

- Cmax (15 mg/kg): 3700 ng/mL
- Tmax (15 mg/kg): 4.25 h
- Cmax (30 mg/kg): 6390 ng/mL
- Tmax (30 mg/kg): 8.25 h
SMILES: N#Cc1cnn2c(-c3cccnc3)ccnc12 [Carbonitrile, 7-(3-pyridyl)pyrazolo[1,5-a]pyrimidine-3-carbonitrile]
